Data: patent publication US12116356B2, “N-heterocyclic five-membered ring-containing capsid protein assembly inhibitor, pharmaceutical composition thereof, and use thereof” (CHIA TAI TIANQING PHARMACEUTICAL GROUP CO., LTD., priority 2018, dated 2024)
≈ marks a conversion by molar mass, not a printed value.

Key:
[1] = Solubility in PBS buffer at pH 7.4; type: physicochemical; settings: aqueous buffer, PBS buffer pH 7.4, 25° C.
Method: […] After standing at 25° C. for 16 hours, the system was centrifugated (12000 rpm, room temperature) for 10 min. 20 μL of the supernatant was taken out, and the reaction was terminated with 400 μL of acetonitrile containing an internal standard (diazepam 20 ng/mL). 30 μL of the supernatant was pipetted, and 150 μL of 50% acetonitrile aqueous solution was added thereto for dilution and mixed uniformly. 0.5 μL of the resulting solution was injected for analysis.

[2] = In vivo pharmacokinetics (PK) study in rats; design: species or system SD rats
Method: SD rats, weighing 180˜220 g, were randomly divided into groups of three […] each after 3 to 5 days' acclimatization, and a series of the compounds were administered intragastrically to each group at a dose of 20 mg/kg.
The test animals (SD rats) were fasted for 12 hours before administration and fed 4 hours after the administration. They were free to access water before and after the experiment.
After the administration, about 0.2 mL of blood from the orbits was collected at 0 min, 15 min, 30 min, 1 h, 2 h, 4 h, 6 h, 8 h, 10 h, 24 h, 30 h, and 48 h. Within 30 minutes after anticoagulation with EDTA-K2, the plasma was separated by centrifugation at 4° C. and 4000 rpm for 10 minutes. Immediately after collecting all plasma, it was stored at −20° C. for testing.
50 μL of the plasma sample to be tested and standard curve sample were pipetted, and then thereto was added 500 μL of an acetonitrile solution containing an internal standard (diazepam 20 mg/mL). The resulting mixture was oscillated and mixed uniformly for 5 min, and then centrifugated at 12000 rpm for 10 min. 75 μL supernatant was pipetted, and 75 μL ultrapure water was added thereto for dilution, and mixed evenly. 1 μL of the resulting solution was pipetted for LC/MS/MS determination.

[3] = In vivo pharmacokinetics (PK) study in mice; settings: ICR mice, po 30 mg/kg
Method: ICR mice, weighing 18-20 g, were randomly divided into groups of three mice each after 3 to 5 days' acclimatization, and a series of the compounds were administered intragastrically to each group at a dose of 30 mg/kg. The test animals (ICR mice) were fasted for 12 hours before the administration and fed 4 hours after the administration. They were free to access water before and after the experiment. After the intragastric administration, about 0.1 mL of blood was collected from the orbits. Within 30 minutes after anticoagulation with EDTA-K2, the plasma was separated by centrifugation at 4° C. and 4000 rpm for 10 minutes. Immediately after collecting all plasma, it was stored at −20° C. for testing. 20 μL of the plasma sample to be tested and standard curve sample were pipetted, and then thereto was added 200 μL of an acetonitrile solution containing an internal standard (diazepam 20 mg/mL). The resulting mixture was oscillated and mixed uniformly for 5 min, and then centrifugated at 12000 rpm for 10 min. 75 μL supernatant was pipetted, and 75 μL ultrapure water was added thereto for dilution, and mixed evenly. 1 μL of the resulting solution was pipetted for LC/MS/MS determination.

[4] = rat, plasma, SD rats, PO 20 mg/kg

Row | SMILES | solubility at 16 h [1] [µM] | F ([2]; SD rats, PO 20 mg/kg vs IV 5 mg/kg) [%] | half-life ([2]; SD, rat, in vivo, po, 20 mg/kg) [h] | AUC(0-inf) [2, 4] [ng·h/mL] | Cmax [2, 4] [ng/mL] | AUC(0-t) ([2]; rat, plasma, SD rats, PO 20 mg/kg, read-out: AUC(0-48 h)) [ng·h/mL] | Liver AUC(0-8 h) ([3]; 0.25 h, 3 h, 8 h) [ng/g] | Plasma AUC(0-8 h) ([3]; blood at 0.25 h, 3 h, 8 h) [ng/mL] | Kp ([3]; mouse, liver/blood, AUC(0-8 h), read-out: Liver to blood ratio)
1 | Cc1c(C(=O)Nc2ccc(F)c(C#N)c2)c(C)n(C)c1C(=O)C(=O)N[C@@H](C)C(F)(F)F [Example 12] | 8.1 (≈ 3.55 µg/mL) | 57 | 3.65 | 62300 | 5020 | 62000 |  |  | 
2 | Cc1c(C(=O)Nc2ccc(F)c(C#N)c2)c(C)n(C)c1C(=O)C(=O)NC1(C(F)(F)F)COC1 [Example 25, N-(3-cyano-4-fluorophenyl)-1,2,4-trimethyl-5-(2-oxo-2-((3-(trifluoromethyl)oxetan-3-yl)amino)acetyl)-1H-pyrrole-3-carboxamide] |  |  |  |  |  |  | 315435 | 37732 | 8.36
